Among the data in PubChem BioAssay (NCI) are TGI values, retold here.

Among the test systems are A549 NSCLC; CAKI-1 renal; HL-60(TB) leukemia; HT29 colon; LOX IMVI melanoma; M14 melanoma; MALME-3M melanoma; MCF7 breast; MDA-MB-231 breast; MDA-N; NCI-H23 lung; NCI-H522 lung; OVCAR-8 ovarian; RPMI-8226 leukemia; RXF 393 renal; SF-539 CNS; U251 CNS; UACC-257 melanoma; SR leukemia.
Common to all, as to test: NCI-60 cell line screen, 48 h

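These data come from cells grown in 96-well plates and exposed to compound for 48 hours at five concentrations. At the TGI there is no net growth.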

With `CC(=O)OCC1OC(O[C@@H]2C[C@H]3C(C)(C)[C@@H](OC(C)=O)CC[C@]3(C)[C@H]3CC[C@]45C[C@]4(CC[C@H]5[C@@H](C)C[C@@H](O)[C@H](O)C(C)(C)F)[C@@]32C)C(O)C(O)C1O` (stereo partly drawn), the TGI was 3.12 µM in the assay on A549 NSCLC; more than 100 µM with CAKI-1 renal; 2750 nM in the assay on HL-60(TB) leukemia; 3.05 µM in the assay on HT29 colon; 4.33 µM in the assay with LOX IMVI melanoma; 3.28 µM in the assay on M14 melanoma. Also, the TGI in the assay with MALME-3M melanoma is 3.48 µM; with MCF7 breast, more than 100 µM; in the assay on MDA-MB-231 breast it was 48.2 µM; in the assay on MDA-N it was 3.09 µM; in the assay on NCI-H23 lung, 4.56 µM; with NCI-H522 lung, 4.82 µM. For the same compound, the TGI in the assay with OVCAR-8 ovarian was 6.1 µM; in the assay on RPMI-8226 leukemia, 4.24 µM; in the assay with RXF 393 renal, more than 100 µM; in the assay on SF-539 CNS it was 3.51 µM; in the assay with U251 CNS it was 41.1 µM; in the assay on UACC-257 melanoma, more than 100 µM.
On to `CCCCCCCCCCCCCCCCCCNc1nc(=O)n(C2CC(O)C(COP(=O)(O)OCC3OC(n4ccc(N)nc4=O)C(O)C3O)O2)cc1F` (stereo not drawn), for which the TGI is more than 100 µM in the assay on A549 NSCLC; more than 100 µM with CAKI-1 renal; 29.2 µM in the assay on HT29 colon; 22.3 µM with LOX IMVI melanoma; more than 100 µM in the assay on M14 melanoma; more than 100 µM in the assay on MALME-3M melanoma. For the same compound, the TGI with MCF7 breast is more than 100 µM; with MDA-MB-231 breast, 72.5 µM; in the assay on MDA-N, more than 100 µM; with NCI-H23 lung, more than 100 µM; in the assay with NCI-H522 lung, 65.3 µM; with OVCAR-8 ovarian, 23 µM. Further, the TGI in the assay on RPMI-8226 leukemia, with RXF 393 renal, in the assay on SF-539 CNS, in the assay with SR leukemia, with U251 CNS and in the assay with UACC-257 melanoma was more than 100 µM each time.
For `c1ccc(C(=NCCC2CNc3ccccc32)c2ccccc2)cc1` (stereo not drawn), the TGI in the assay with A549 NSCLC, in the assay on CAKI-1 renal, in the assay on HT29 colon, in the assay on M14 melanoma, in the assay on MALME-3M melanoma and with MCF7 breast was more than 100 µM throughout. The TGI with MDA-MB-231 breast, in the assay on MDA-N, in the assay on NCI-H23 lung, in the assay with NCI-H522 lung, in the assay on OVCAR-8 ovarian and in the assay with RPMI-8226 leukemia was more than 100 µM throughout. Moreover, the TGI in the assay on RXF 393 renal, in the assay on SR leukemia, in the assay with U251 CNS and with UACC-257 melanoma was more than 100 µM each time.
As to `O=c1[nH]c(=O)n(C2CC(O)C(CO)O2)c2nc3ccc4cc5ccccc5cc4c3nc12` (stereo not drawn), the TGI with A549 NSCLC, in the assay with CAKI-1 renal, with HT29 colon, in the assay with LOX IMVI melanoma, in the assay with M14 melanoma and with MALME-3M melanoma was more than 100 µM each time. In addition, the TGI in the assay with MCF7 breast, in the assay on MDA-MB-231 breast, in the assay with MDA-N, with NCI-H23 lung, with NCI-H522 lung and with OVCAR-8 ovarian was more than 100 µM throughout. Further, the TGI in the assay with RPMI-8226 leukemia, in the assay on RXF 393 renal, with SF-539 CNS, in the assay with SR leukemia, in the assay with U251 CNS and with UACC-257 melanoma was more than 100 µM throughout.
For `ON[C@H]1C[C@@H](n2cnc3c(NC4CC4)ncnc32)[C@H](O)[C@@H]1O`, the TGI with A549 NSCLC, with CAKI-1 renal, with HT29 colon, with LOX IMVI melanoma, with M14 melanoma and with MALME-3M melanoma was more than 100 µM throughout. Moreover, the TGI in the assay on MCF7 breast, with MDA-MB-231 breast, in the assay on MDA-N, in the assay on NCI-H23 lung, in the assay with NCI-H522 lung and with OVCAR-8 ovarian was more than 100 µM in each case. Also, the TGI in the assay on RPMI-8226 leukemia, in the assay with RXF 393 renal, with SF-539 CNS, with SR leukemia, with U251 CNS and in the assay with UACC-257 melanoma was more than 100 µM each time.
For the compound `ONC1=Nc2ccccc2C(=S)N2CSCC12` (stereo not drawn), the TGI with A549 NSCLC, in the assay with CAKI-1 renal, in the assay with HT29 colon, in the assay on LOX IMVI melanoma, in the assay on M14 melanoma and in the assay on MALME-3M melanoma was more than 100 µM throughout. The TGI with MCF7 breast is more than 100 µM; in the assay with MDA-MB-231 breast, more than 100 µM; in the assay with MDA-N it was 45.1 µM; in the assay on NCI-H522 lung, more than 100 µM; with OVCAR-8 ovarian, more than 100 µM; with RPMI-8226 leukemia, more than 100 µM. Further, the TGI in the assay with RXF 393 renal is more than 100 µM; with SR leukemia it was 89 µM; in the assay with U251 CNS, more than 100 µM; in the assay on UACC-257 melanoma, more than 100 µM.
In the case of `COc1ccc(N=NC(=Nc2ccc(Cl)cc2)c2ccc(N(CCC#N)CCC#N)cc2)cc1`, the TGI in the assay on A549 NSCLC, in the assay with CAKI-1 renal, in the assay on HT29 colon, with M14 melanoma, with MCF7 breast and with MDA-MB-231 breast was more than 100 µM each time. Besides, the TGI in the assay with MDA-N was more than 100 µM; in the assay on NCI-H23 lung it was more than 100 µM; in the assay on NCI-H522 lung it was 45.3 µM; in the assay on OVCAR-8 ovarian, more than 100 µM; in the assay on RPMI-8226 leukemia it was more than 100 µM; with RXF 393 renal, more than 100 µM. Also, the TGI with SF-539 CNS is more than 100 µM; in the assay on SR leukemia, more than 100 µM; in the assay with U251 CNS, more than 100 µM; with UACC-257 melanoma it was 64.7 µM.
As for `CC(C)(C)OC(=O)NCCNCCNc1ccccc1`, the TGI with A549 NSCLC, in the assay with CAKI-1 renal, with HT29 colon, in the assay on LOX IMVI melanoma, in the assay on M14 melanoma and in the assay on MALME-3M melanoma was more than 100 µM throughout. The TGI in the assay on MCF7 breast, with MDA-MB-231 breast, with MDA-N, in the assay with NCI-H23 lung, in the assay on NCI-H522 lung and in the assay on OVCAR-8 ovarian was more than 100 µM each time. Further, the TGI in the assay on RPMI-8226 leukemia, with RXF 393 renal, in the assay with SF-539 CNS, in the assay with SR leukemia, in the assay with U251 CNS and in the assay on UACC-257 melanoma was more than 100 µM in each case.
